Here are results for 3 compounds from patent US7226941B2, “Compound for treating angiogenesis” (HIF Bio, Inc., priority 2003, dated 2007).

The structures appear in SMILES notation.

Assay type in all cases: cell-based, human
One assay relates to HIF. The assay is described as follows: HIF activity assay (EPO enhancer luciferase reporter). To be noted: Hep3B, 16 h at 1% O2 (FIGS. 4a-4i). The method, then: The synthetic DNA coding the HIF-binding enhancer region of the EPO gene, 5-[…] ATCT-3 (SEQ. ID NO. 1), was inserted into the pGL3 promoter plasmid (Promega). To assay the HIF activity, Hep3B cells were cotransfected with the luciferase reporter gene and the plasmid cytomegalovirus-β-gal, using the calcium phosphate method. Transfected cells were split into nine aliquots and incubated for 42 h. After stabilizing, the cells were incubated for 16 h at 20% or 1% O2. They were then lysed and assayed for luciferase activity using a Biocounter M1500 luminometer (Lumac). β-gal assays were performed for normalization of transfection.
For orientation: Reporter assays use an easily measured gene product as a stand-in for the process of interest.

Another assay concerns PARP. The assay is described as follows: PARP cleavage by immunoblotting. To be noted: 1, 2 μM for 90 h, Hep3B (FIG. 3b). As for the experimental part:
(§1) The activity of caspase-3 was represented in nmoles of p-nitroaniline released per min and per ml of cellular extract. Bars represent the mean of three separate experiments with the upper 95% confidence interval. *: p<0.05 vs. the control. […] PARP cleavage was analysed by immunoblotting with a mouse anti-PARP antibody. Proteins were visualized by Enhanced Chemiluminescence Plus. The lane C is the control. […] PARP is essential for DNA-replication in the S-phase and its absence leads to apoptosis.
(§2) Referring to FIG. 3a, the caspase-3 activity increased over time to about 5 times the activity in the control after 72 h. […] Inactivation of PARP leads to cell apoptosis. PARP protein was analyzed using Western blotting with anti-PARP antibody (BIOMOL Research Laboratories, Inc), diluted 1:5000. […] For quantification of apoptosis at single cell level, based on labeling of DNA strand breaks, Terminal deoxynucleotidyl Transferase-mediated dUTP Nick End Labeling (TUNEL) assay was performed according to the manufacturer's protocol (In Situ Cell Death Detection Kit; TMR Red; Roche Diagnostics GmbH, Mannheim, Germany). It is a method for detecting the 3′—OH ends of DNA exposed during the internucleosomal cleavage that occurs during apoptosis. Incorporation of fluorescein-dUTP allows detection by FACS. […]
(In general: In western blotting, separated proteins are transferred to a membrane and probed.)

In assay [1] the test system is Hep3B cells. The assay is described as follows: Cell viability by MTT assay. To be noted: 0.5, 1, or 2 μM for 24, 48, or 72 h (FIG. 2). As for the experimental part: The percentages of viable cells were measured by MTT assay. […] Bars represent the mean of three separate experiments with the upper 95% confidence interval. *: p<0.05 vs. the control.
Compounds of Formula I or II can be evaluated for efficacy using the methods described above. In addition, compounds of the invention have efficacy in a cell viability assay using human cancer cells. The cells are treated with a compound of Formula I or II (at concentrations ranging from 0.5-2 μM) and buffer. Cellular viability is measured at 24, 48, and 72 hours. Treatment with the compound results in a notable decrease in cell viability.
The percentage of viable cells was measured by MTT assay. Cells were plated in 12 well plates. […] Resulting insoluble formazan was dissolved with 0.04 N HCl in isopropanol. Absorbance of purple color of formazan was measured at 570 nm with a spectrophotometer.
Background: Tetrazolium assays rely on reduction of a dye to a coloured formazan, in cell work by metabolically active cells.

The subject of another assay is HIF-2α. The assay is described as follows: Immunoblotting of HIF-2α protein in hypoxic Hep3B cells. To be noted: for inhibition of HIF-2α: hypoxia (1% O2) 18 hours, immunoblot. As for the experimental part: Hep3B hepatoma cells are cultured in α-modified Eagle's medium supplemented with 10% […] fetal bovine serum, 100 units/ml penicillin, and 100 μg/ml streptomycin in a humidified atmosphere containing 5% CO2 at 37° C. Oxygen tension in the incubator is held at either 140 mm Hg (20% O2, v/v, normoxia) or 7 mm Hg (1% O2, v/v, hypoxia). After 24 hour stabilization under normoxic conditions, cells are incubated under normoxic or hypoxic conditions for 18 hours in the presence or in the absence of compounds of the invention. For the immunoblotting of HIF-1α or HIF-2α in cultured cells, 20 μg of extracted proteins are separated on 6.5% SDS/polyacrylamide gels, and then transferred to an Immobilon-P membrane (Millipore). Immobilized proteins are incubated overnight at 4° C. with rat anti-HIF-1α(Chun et al., J Cell Sci 2001 114:4051-4061) or anti-HIF-2α(Novus Biologicals, Littleton, Colo.), diluted 1:5000 in 5% nonfat milk in TBS/0.1% Tween-20 (TTBS). Horseradish peroxidase-conjugated anti-rat antiserum is used as a secondary antibody and the complexes are visualized using an Enhanced Chemiluminescence Plus Kit (Amersham Pharmacia Biotec).
To induce HIF-1α and HIF-2α proteins, Hep3B cells were incubated in a hypoxic chamber (1% oxygen tension) for 16 hours. […] The amounts of HIF proteins were measured by Western blotting method.

Another assay deals with Hep3B hepatoma cells. Nature of the assay: Cell cycle analysis by FACS (propidium iodide DNA content). As for the experimental part:
FIG. 1a is the FACS data to analyze the cell distribution based on DNA content. […] The cell cycle analysis was performed using a Becton Dickinson FACStar flow cytometer. Cells (1-2×10^6) were plated in 10 cm culture dishes at concentrations determined to yield 70-80% confluence within 24 h. Cells were treated with DMSO or YC-1 and incubated for described time. After incubation, both adherent and floating cells were harvested, washed with 3 ml PBS and resuspended with 200 μl PBS, fixed in 75% ethanol for 30 min on ice. After washing with PBS, cells were labeled with propidium iodide (0.05 mg/ml) in the presence of RNase A (0.5 mg/ml), incubated at room temperature in the dark for 30 min. DNA content was then analyzed using FACStar flow cytometer, and then excited with an argon, water-cooled laser emitting at 488 nm. Propidium iodide was detected using a 630±20 nm band pass filter.
The compounds induce cell cycle arrest as shown in Hep3B liver tumor cells. After application of 1 μM into cultures of Hep3B cells, typically in 48 hours, 28% of the cells were in the G0/G1 phases, 15% in the G2/M phases, 57% in the S phase, and a small percentage were characterized as being in the sub-G1 phase. In the control, typically 60% of the cells were in the G0/G1 phases, 16% in the G2/M phases, and […] in the S-phase.

Assay [2] relates to Hep3B cells. The assay is described as follows: TUNEL assay of apoptosis. As for the experimental part:
as §1, §2

For the next assay, the system named is HIF-1α. The assay is described as follows: Immunoblotting of HIF-1α protein in hypoxic Hep3B cells. To be noted: hypoxia (1% O2) 18 hours, immunoblot.

Description for HIF-1α: Hep3B hepatoma cells are cultured in α-modified Eagle's medium supplemented with 10% heat-activated fetal bovine serum, 100 units/ml penicillin, and 100 μg/ml streptomycin in a humidified atmosphere containing 5% CO2 at 37° C. Oxygen tension in the incubator is held at either 140 mm Hg (20% O2, v/v, normoxia) or 7 mm Hg (1% O2, v/v, hypoxia). After 24 hour stabilization under normoxic conditions, cells are incubated under normoxic or hypoxic conditions for 18 hours in the presence or in the absence of compounds of the invention. For the immunoblotting of HIF-1α or HIF-2α in cultured cells, 20 μg of extracted proteins are separated on 6.5% SDS/polyacrylamide gels, and then transferred to an Immobilon-P membrane (Millipore). Immobilized proteins are incubated overnight at 4° C. with rat anti-HIF-1α(Chun et al., J Cell Sci 2001 114:4051-4061) or anti-HIF-2α(Novus Biologicals, Littleton, Colo.), diluted 1:5000 in 5% nonfat milk in TBS/0.1% Tween-20 (TTBS). Horseradish peroxidase-conjugated anti-rat antiserum is used as a secondary antibody and the complexes are visualized using an Enhanced Chemiluminescence Plus Kit (Amersham Pharmacia Biotec).

As for `OCc1ccc(-c2nn(Cc3ccccc3)c3ccccc23)o1` [YC-1, 3-(5′-hydroxymethyl-2′-furyl)-1-benzylindazole], in the assay on HIF, the “HIF activity (luciferase reporter)” value is on record as “effectively reduced”. Also, the “amount of the 89 kDa fragment of PARP” value with PARP is “increased when the YC-1 dose was doubled”. Besides, the cell viability entry in the assay on Hep3B cells [1] was “decreased by YC-1, dose-dependently and time-dependently”. The “expression of HIF-2α protein” value with HIF-2α (1% oxygen 16 hours, 0.3 to 10 μg/ml, Western blotting (FIGS. 4a-4i)) was “effectively reduced”. Also, in the assay with Hep3B hepatoma cells (Hep3B cells, time after application), the “percentage of cells in the S-phase over time (FIG. 1)” value is recorded as “steadily increased with time after application”. In addition, the “dose dependence of the cell cycle (S-phase) arrest” value in the assay with Hep3B hepatoma cells (Hep3B cultures) is “dose dependent up to 5 μM”. Besides, in the assay on Hep3B hepatoma cells (Hep3B hepatoma cells), the “effect on cell cycle (FIG. 1)” value is reported as “S-phase arrest”. The “percentage of TUNEL-positive cells” value with Hep3B cells [2] (1, 2 μM for 90 h, Hep3B (FIG. 3c)) was “increased dose-dependently”. In the assay on Hep3B cells [2] (caspase-3 inhibitor Ac-DEVD-CHO pre-treated 1 h before YC-1), the “percentage of TUNEL-positive cells with caspase-3 inhibitor” value is reported as “decreased significantly”.
Regarding `CC(C)n1nc(-c2ccc(CO)o2)c2ccccc21` [{5-[1-(prop-2-yl)-1H-indazol-3-yl]-furan-2-yl}-methanol], in the assay with HIF-2α, the “inhibition of HIF-2α” value is reported as “strong inhibitors”. For the same compound, the “inhibition of HIF-1α” value in the assay on HIF-1α is “strong inhibitors”.
On to `OCc1ccc(-n2cnc3ccccc32)o1` [{5-[1H-benzimidazol-1-yl]-furan-2-yl}-methanol], for which, in the assay on HIF-2α, the “inhibition of HIF-2α” value is on record as “strong inhibitors”. In addition, the “inhibition of HIF-1α” value in the assay on HIF-1α was “strong inhibitors”.
